The results in this text go back to ChEMBL document CHEMBL1145869, “Enantiomerically pure tetrahydroquinoline derivatives as in vivo potent antagonists of the glycine binding site associated to the NMDA receptor” (Bioorg Med Chem Lett, 2003).

One data set deals with Glutamate NMDA receptor. The data set is described as follows: In vitro ability to inhibit the binding of [3H]glycine to glycine binding site of N-methyl-D-aspartate glutamate receptor in rat synaptic membranes. Format: cell membranes, Membrane.
The test system of data set [1] is Rattus norvegicus. The data set is described as follows: In vivo neuroprotective activity as reduction of size of gross brain damage in the MCAo model of rats 6 hr after occlusion(post-ischemia) by iv administration at a dose of 0.3 mg/kg. Format: functional.
Data set [2] has as its system Rattus norvegicus. The data set is described as follows: In vivo neuroprotective activity in the MCAo model of rats 6 hr after occlusion(post-ischemia) by iv administration at a dose of 0.3 mg/kg. It counts as functional.
Data set [3] relates to Rattus norvegicus. The data set is described as follows: In vivo neuroprotective activity in the MCAo model of rats 6 hr after occlusion(post-ischemia) by iv administration at a dose of 1 mg/kg. Format: functional.
Data set [4] deals with Rattus norvegicus. As to the kind of experiment: In vivo neuroprotective activity as reduction of size of gross brain damage in the MCAo model of rats 6 hr after occlusion(post-ischemia) by iv administration at a dose of 1 mg/kg. Format: functional.
Data set [5] is filed under the species Rattus norvegicus. As to the kind of experiment: Area under curve in rat plasma. Format: ADME, organism-based. As to conditions: in vivo.
In the next data set the test system is Mus musculus. The data set is described as follows: In vivo neuroprotective activity in the NMDA-induced convulsions in mice after iv administration. It counts as functional.
In data set [6] the test system is Rattus norvegicus. As to the kind of experiment: In vivo neuroprotective activity as reduction of size of gross brain damage in the MCAo model of rats 5 min prior to occlusion(pre-ischemia) by iv administration at a dose of 10 mg/kg. Format: functional.
In data set [7] the test system is Rattus norvegicus. The data set is described as follows: In vivo neuroprotective activity in the MCAo model of rats 5 min prior to occlusion(pre-ischemia) by iv administration at a dose of 10 mg/kg. It counts as functional.
The subject of data set [8] is Rattus norvegicus. The data set is described as follows: In vivo neuroprotective activity in the MCAo model of rats 5 min prior to occlusion(pre-ischemia) by iv administration at a dose of 1 mg/kg. It counts as functional.
Data set [9] has as its system Rattus norvegicus. As to the kind of experiment: In vivo neuroprotective activity as reduction of size of gross brain damage in the MCAo model of rats 5 min prior to occlusion(pre-ischemia) by iv administration at a dose of 0.1 mg/kg. Format: functional.
Data set [10] relates to Rattus norvegicus. As to the kind of experiment: In vivo neuroprotective activity as reduction of size of gross brain damage in the MCAo model of rats 5 min prior to occlusion(pre-ischemia) by iv administration at a dose of 1 mg/kg. It counts as functional.
For data set [11], the system named is Rattus norvegicus. As to the kind of experiment: In vivo neuroprotective activity as reduction of size of gross brain damage in the MCAo model of rats 5 min prior to occlusion(pre-ischemia) by iv administration at a dose of 0.01 mg/kg. It counts as functional.
The subject of data set [12] is Rattus norvegicus. The data set is described as follows: In vivo neuroprotective activity in the MCAo model of rats 5 min prior to occlusion(pre-ischemia) by iv administration at a dose of 0.01 mg/kg. It counts as functional.
For data set [13], the system named is Rattus norvegicus. The data set is described as follows: In vivo neuroprotective activity in the MCAo model of rats 5 min prior to occlusion(pre-ischemia) by iv administration at a dose of 0.1 mg/kg. It counts as functional.

As for `CC(=O)NCc1ccc(NC(=O)/C=C2\CC(C(=O)O)Nc3cc(Cl)cc(Cl)c32)cc1` (stereo not drawn), the “Log Ki” value on Glutamate NMDA receptor is -8.32.
Turning to `CC(C)C(=O)NCc1ccc(NC(=O)/C=C2\CC(C(=O)O)Nc3cc(Cl)cc(Cl)c32)cc1` (stereo not drawn), the “Log Ki” value at Glutamate NMDA receptor is -7.78.
`CS(=O)(=O)Nc1ccc(NC(=O)/C=C2\CC(C(=O)O)Nc3cc(Cl)cc(Cl)c32)cc1` (stereo not drawn): the “Log Ki” value at Glutamate NMDA receptor is recorded as -8.18.
On the same count and under the same terms, to `NC(=O)/C=C/c1ccc(NC(=O)/C=C2\CC(C(=O)O)Nc3cc(Cl)cc(Cl)c32)cc1` (stereo not drawn) belongs -8.15.
The same measure, in the same setting: to `O=C(/C=C1\CC(C(=O)O)Nc2cc(Cl)cc(Cl)c21)Nc1ccccc1` (stereo not drawn) belongs -8.18.
Still for that read-out and setting: to `Nc1ccc(NC(=O)/C=C2\CC(C(=O)O)Nc3cc(Cl)cc(Cl)c32)cc1` (stereo not drawn) belongs -7.76.
With `NS(=O)(=O)Nc1ccc(NC(=O)/C=C2\CC(C(=O)O)Nc3cc(Cl)cc(Cl)c32)cc1` (stereo not drawn), at Glutamate NMDA receptor, the “Log Ki” value is reported as -8.17.
Same read-out and setting: to `N#CCc1ccc(NC(=O)/C=C2\CC(C(=O)O)Nc3cc(Cl)cc(Cl)c32)cc1` (stereo not drawn) belongs -8.15; to `NC(=O)NCc1ccc(NC(=O)/C=C2\CC(C(=O)O)Nc3cc(Cl)cc(Cl)c32)cc1` (stereo not drawn), -8.38.
As to `N#C/C=C/c1ccc(NC(=O)/C=C2\CC(C(=O)O)Nc3cc(Cl)cc(Cl)c32)cc1` (stereo not drawn), at Glutamate NMDA receptor, the “Log Ki” value is on record as -7.73.
Still for that read-out and setting: next, `NC(=O)Cc1ccc(NC(=O)/C=C2\CC(C(=O)O)Nc3cc(Cl)cc(Cl)c32)cc1` (stereo not drawn): -8.18; `O=C(O)Cc1ccc(NC(=O)/C=C2\CC(C(=O)O)Nc3cc(Cl)cc(Cl)c32)cc1` (stereo not drawn): -7.72.
With `COCC(=O)Nc1ccc(NC(=O)/C=C2\CC(C(=O)O)Nc3cc(Cl)cc(Cl)c32)cc1` (stereo not drawn), the “Log Ki” value on Glutamate NMDA receptor is listed as -8.18.
The AUC is concentration integrated over time. For orientation: ED50 means the dose at which the effect has come halfway, by size or by number of responders. Read a low ED50 as an effect at a small dose. Regarding `CC(=O)Nc1ccc(NC(=O)/C=C2\CC(C(=O)O)Nc3cc(Cl)cc(Cl)c32)cc1` (single isomer, unassigned; (+)), the Reduction is given as 26.3% with Rattus norvegicus [1] and 41.2% with Rattus norvegicus [4]. For the same molecule, the results for the Infarct volume in the data set on Rattus norvegicus [2] and with Rattus norvegicus [3] were 55.6 mm**3 and 44.4 mm**3, respectively. Also, in the data set listed under Rattus norvegicus [5], the AUC stood at 3440 ng·h/mL. Moreover, the ED50 with Mus musculus worked out at 0.31 mg/kg. The “Log Ki” value at Glutamate NMDA receptor is listed as -8.79.
Turning to `CC(=O)Nc1ccc(NC(=O)/C=C2\CC(C(=O)O)Nc3cc(Cl)cc(Cl)c32)cc1` (single isomer, unassigned; (-)), the Reduction in the data set on Rattus norvegicus [1] came to 22.2%; in the data set with Rattus norvegicus [4] it was 43.2%. For the same molecule, the Infarct volume worked out at 58.7 mm**3 in the data set on Rattus norvegicus [2] and 42.9 mm**3 with Rattus norvegicus [3]. Also, in the data set filed under Rattus norvegicus [5], the AUC was determined as 19800 ng·h/mL. Also, the ED50 with Mus musculus was 1.52 mg/kg. In addition, the “Log Ki” value at Glutamate NMDA receptor is -7.3.
Regarding `CC(=O)Nc1ccc(NC(=O)/C=C2\CC(C(=O)O)Nc3cc(Cl)cc(Cl)c32)cc1` (stereo in doubt; 3c), the Reduction with Rattus norvegicus [1] was 50.3%; in the data set with Rattus norvegicus [6], 46.1%; with Rattus norvegicus [9], 35.1%; in the data set on Rattus norvegicus [10], 43.3%; with Rattus norvegicus [4], 59.4%; in the data set with Rattus norvegicus [11] it was 12.7%. Further, the Infarct volume with Rattus norvegicus [2] came to 36.6 mm**3; with Rattus norvegicus [3], 29.9 mm**3; with Rattus norvegicus [7], 39.7 mm3; in the data set on Rattus norvegicus [8] it was 41.8 mm3; with Rattus norvegicus [12], 64.3 mm3; in the data set on Rattus norvegicus [13] it was 47.8 mm3. Further, the AUC in the data set filed under Rattus norvegicus [5] is 11500 ng·h/mL. For the same molecule, the ED50 in the data set with Mus musculus is 0.2 mg/kg. In addition, the “Log Ki” value at Glutamate NMDA receptor is -8.52.
As to `O=C(/C=C/c1c(C(=O)O)[nH]c2cc(Cl)cc(Cl)c12)Nc1ccccc1` [GAVESTINEL], the “Log Ki” value on Glutamate NMDA receptor is on record as -8.52.
